Laboratory results from patent US20220193025A1, “USE OF DIANHYDROHEXITOL TO ELIMINATE THE COSMETIC EFFECTS OF ACNE, DANDRUFF AND BAD ODORS” (ROQUETTE FRERES, priority 2019, published 2022).

What was measured:
[1] = system: Propionobacterium acnes strain; assay: Example 1: microbial population count over 28 days after contamination (microtiter method, TTC); type: cell-based; settings: for Number of colony forming strains after: 24 h / Number of colony forming strains after: 7 days / Number of colony forming strains after: 14 days / Number of colony forming strains after: 21 days / Number of colony forming strains after: 28 days: 22° C.
Protocol: (§1) The samples are prepared under sterile conditions and deposited in microplates (2-ml wells) with the concentrations hereunder. Two analysis controls were produced: a positive control corresponding to 0.5% Phenonip®; a negative control consisting of 0.85% physiological saline solution. Samples and controls are contaminated by a Propionobacterium acnes bacterial strain with around 1.43×10^5 to 4.15×10^5 colony forming units per milliliter, denoted cfu/ml. After contamination, the samples are carefully mixed by suction-discharge cycles in order to ensure a uniform distribution of the microorganism. The whole is incubated at 22° C. during 28 days. The microbial population is sampled and counted at 24 hours, 7, 14, 21 and 28 days for the Propionobacterium acnes bacterial strain. The contaminated samples are collected and then deposited in serial dilutions in microtiter plates, in the presence of culture medium, which is a saline solution with 0.85% sodium chloride, and a dehydrogenase activity indicator reagent, which is 2,3,5-triphenyltetrazolium chloride (denoted TTC). The results are presented in the following pages with the variation of the microbial population over the 28 days of study, for the tested microbial strain. The measurements of microbial populations in the samples collected at each time, are carried out according to the following microtiter method, for one sample collection. In the 96 wells with a volume of 250 μL of a microtiter plate, 20 μL of the collected sample are diluted by a factor of 10 by dispersion in 180 μL of Letheen broth (Difco, ref. 268110) containing 1.5% of Tween 80 (Sigma, ref. […]) and TTC (Sigma, ref. […]). The microplate is incubated for 48 hours at 32.5° C., and the growth of the microorganisms is monitored by the color change, from colorless to red/pink. The highest reciprocal dilution indicating a growth makes it possible to determine the log number of each microorganism at each time. The measurements of microbial populations taken at each collection time are expressed as colony forming units/ml.

Staphylococcus aureus = settings: U.S. Pat. No. 9,295,626, table 2; cited from earlier work
Malassezia furfur strain = assay: Example 2: microbial population count over 28 days after contamination (microtiter method, TTC); type: cell-based; settings: for Number of colony forming strains after: 24 h / Number of colony forming strains after: 7 days / Number of colony forming strains after: 14 days / Number of colony forming strains after: 21 days / Number of colony forming strains after: 28 days: 22° C.
Protocol: as §1, with “Malassezia furfur fungal” for “Propionobacterium acnes bacterial”, “1.50×10^4” for “1.43×10^5”, “3.80×10^4” for “4.15×10^5”, “the” for “the Propionobacterium acnes”

O[C@@H]1CO[C@H]2[C@@H]1OC[C@@H]2O [isosorbide, 1,4-3,6-dianhydrosorbitol]
bactericide: bactericidal effect (conclusion in words) ([1]; Example 1) | effect on the strain (conclusion in words) (Malassezia furfur strain)
no colony forming strain is observed: colony forming strain observed ([1]; after 24 hours, Example 1) | colony forming strain observed (Malassezia furfur strain; after 24 hours)
10%: minimum inhibitory concentration (Staphylococcus aureus)
0 colony forming units/ml: Number of colony forming strains after: 24 h ([1]; dose 1%) | Number of colony forming strains after: 7 days ([1]; dose 1%) | Number of colony forming strains after: 14 days ([1]; dose 1%) | Number of colony forming strains after: 21 days ([1]; dose 1%) | Number of colony forming strains after: 28 days ([1]; dose 1%) | Number of colony forming strains after: 24 h ([1]; dose 5%) | Number of colony forming strains after: 7 days ([1]; dose 5%) | Number of colony forming strains after: 14 days ([1]; dose 5%) | Number of colony forming strains after: 21 days ([1]; dose 5%) | Number of colony forming strains after: 28 days ([1]; dose 5%) | Number of colony forming strains after: 24 h ([1]; dose 9%) | Number of colony forming strains after: 7 days ([1]; dose 9%) | Number of colony forming strains after: 14 days ([1]; dose 9%) | Number of colony forming strains after: 21 days ([1]; dose 9%) | Number of colony forming strains after: 28 days ([1]; dose 9%) | Number of colony forming strains after: 24 h (Malassezia furfur strain; dose of isosorbide 1%) | Number of colony forming strains after: 7 days (Malassezia furfur strain; dose of isosorbide 1%) | Number of colony forming strains after: 14 days (Malassezia furfur strain; dose of isosorbide 1%) | Number of colony forming strains after: 21 days (Malassezia furfur strain; dose of isosorbide 1%) | Number of colony forming strains after: 28 days (Malassezia furfur strain; dose of isosorbide 1%) | Number of colony forming strains after: 24 h (Malassezia furfur strain; dose of isosorbide 5%) | Number of colony forming strains after: 7 days (Malassezia furfur strain; dose of isosorbide 5%) | Number of colony forming strains after: 14 days (Malassezia furfur strain; dose of isosorbide 5%) | Number of colony forming strains after: 21 days (Malassezia furfur strain; dose of isosorbide 5%) | Number of colony forming strains after: 28 days (Malassezia furfur strain; dose of isosorbide 5%) | Number of colony forming strains after: 24 h (Malassezia furfur strain; dose of isosorbide 9%) | Number of colony forming strains after: 7 days (Malassezia furfur strain; dose of isosorbide 9%) | Number of colony forming strains after: 14 days (Malassezia furfur strain; dose of isosorbide 9%) | Number of colony forming strains after: 21 days (Malassezia furfur strain; dose of isosorbide 9%) | Number of colony forming strains after: 28 days (Malassezia furfur strain; dose of isosorbide 9%)
